Key:
[1] = Exposure of dry cake to humidity, solid form checked by XRPD; format: physicochemical; details: for XRPD pattern, dry cake exposed to humidity: monofumarate solids exposed to humidity (90% RH/30° C.), monofumarate
Method: The two different polymorphic forms of N-ethyl-2-(5-fluoro-1H-indol-3-yl)-N-methylethan-1-amine monofumarate were discovered by reactive crystallization from various solvents. These crystallization experiments were performed by subjecting the in-situ created salt, made by evaporating an ethanol solution of free base and fumaric acid, to vigorous agitation in 10 volumes of the selected solvent. The agitated mixtures were heated to 45-50° C. and cooled to room temperature as necessary to induce crystallization. Form 1 was the predominant form from acetone, and the mixed ethanol/MTBE solvent system, whereas, Form 2 was produced from IPA solvent (see Table 7 below).
The polymorphic Form 1 of N-ethyl-2-(5-fluoro-1H-indol-3-yl)-N-methylethan-1-amine hemifumarate was discovered by reactive crystallization from various solvents. These crystallization experiments were performed by subjecting the in-situ created salt, made by evaporating an ethanol solution of free base and 0.55 equivalents of fumaric acid, to vigorous agitation in 10 volumes of the selected solvent. The agitated mixtures were heated to 45-50° C. and cooled to room temperature as necessary to induce crystallization. Only one form was observed from the brief crystallization screening study, as depicted in Table 10 below.

[2] = Dynamic Vapor Sorption (DVS) isotherm; format: physicochemical; details: 25° C., FIG. 19
Method: Dynamic Vapor Sorption (DVS) was performed using a Q5000SA. The sample (5-15 mg) was loaded into a metallic quartz sample pan, suspended from a microbalance, and exposed to a humidified stream of nitrogen gas. Weight changes were relative to a matching empty reference pan opposite the sample, suspended from the microbalance. The sample was held for a minimum of 10 min at each level and only progressed to the next humidity level if there was <0.002% change in weight between measurements (interval: 5 s) or 45 min had elapsed (for 5-65% RH) or 2 h had elapsed (for 80 and 95% RH). The following programs were used: • 1—Equilibration at 50% RH • 2—50% to 5%. (50%, 35%, 20%, and 5%) • 3—5% to 95% (5%, 20%, 35%, 50%, 65%, 80%, and 95%) • 4—95% to 5% (95%, 80%, 65%, 50%, 35%, 20%, and 5%) • 5—5% to 50% (5%, 20%, 35%, and 50%) • 1—Equilibration at 50% RH • 2—50% to 2%. (50%, 40%, 30%, 20%, 10%, and 2%) • 3—2% to 75% (2%, 10%, 20%, 30%, 40%, 50%, 60%, 70% and 75%) • 4—75% to 2% (75%, 70%, 60%, 50%, 40%, 30%, 20%, 10% and 2%) • 5—2% to 50% (2%, 10%, 20%, 30%, 40% and 50%) • 1—Equilibration at 50% RH • 2—50% to 2%. (50%, 40%, 30%, 20%, 10%, and 2%) • 3—2% to 65% (2%, 10%, 20%, 30%, 40%, 50%, 60% and 65%) • 4—65% to 2% (65%, 60%, 50%, 40%, 30%, 20%, 10% and 2%) • 5—2% to 50% (2%, 10%, 20%, 30%, 40% and 50%). […]

Molecule | XRPD pattern, dry cake exposed to humidity [1] | other results
CCN(C)CCc1c[nH]c2ccc(F)cc12.O=C(O)/C=C/C(=O)O [monofumarate Form 2, N-ethyl-2-(5-fluoro-1H-indol-3-yl)-N-methylethan-1-amine monofumarate] | slowly converted to Form 1 | 
CCN(C)CCc1c[nH]c2ccc(F)cc12.O=C(O)/C=C/C(=O)O [monofumarate Form 1, N-ethyl-2-(5-fluoro-1H-indol-3-yl)-N-methylethan-1-amine monofumarate] | Form 1 | 
N-ethyl-2-(5-fluoro-1H-indol-3-yl)-N-methylethan-1-amine hemifumarate [hemifumarate Form 1] |  | XRPD pattern, Humid ([1]; hemi-fumarate dry solid from EtOH:MTBE (1:1 vol.), exposed to humidity): deliquescent
CCN(C)CCc1c[nH]c2ccc(F)cc12.Cl [hydrochloride Form 1, N-ethyl-2-(5-fluoro-1H-indol-3-yl)-N-methylethan-1-amine hydrochloride] |  | DVS isotherm behaviour (moisture sorption equilibrium) [2]: did not reach equilibrium at 75% RH

Reference: patent US12180158B1, “Crystalline fumarate salts of n-ethyl-2-(5-fluoro-1H-indol-3-yl)-n-methylethan-1-amine” (Gilgamesh Pharmaceuticals, Inc., priority 2023, dated 2024)
